Reference: patent US20090010873A1, “Methods of Cell Therapy, Neurogenesis and Oligodendrogenesis” (YEDA RESEARCH AND DEVELOPMENT CO. LTD., priority 2004, published 2009)

Tested on: aNPCs
Assay: Neuronal differentiation of aNPCs with CD4+ T cells, T cell-conditioned medium or cytokines
Assay type: cell-based, mouse
Settings: aNPCs cultured 5 days with the cytokine
Experimental: (xxxiii) Co-culturing of neural progenitor cells and T cells. CD4+ T cells were purified from lymph nodes of 8-week-old C57B16/J mice as previously described (Kipnis et al., 2004). T cells were activated in RPMI medium supplemented with L-glutamine (2 mM), 2-mercaptoethanol (5×10^−5 M), sodium pyruvate (1 mM), penicillin (100 IU/ml), streptomycin (100 μg/ml), nonessential amino acids (1 ml/100 ml), and autologous serum 2% (v/v) in the presence of mouse recombinant IL-2 (mrIL-2; 5 ng/ml) and soluble anti-CD28 and anti-CD3 antibodies (1 ng/ml). T cells were co-cultured (5×10^4 cells/well) with aNPCs (5×10^4 cells/well) for 5 d on cover slips coated with Matrigel (BD Biosciences) in 24-well plates. The cultures were then fixed with 2.5% paraformaldehyde in PBS for 30 min at room temperature and stained for neuronal markers.
We therefore sought to determine whether direct interaction between aNPCs and T cells would also result in an altered pattern of aNPC differentiation. To address this question, we activated CD4+ T cells in vitro by a cognate protocol (with anti-CD3 antibodies, anti-CD28 antibodies, and IL-2) for 24 h and then allowed their activation to continue in co-cultures with aNPCs in a transwell culture system. […] After 5 days in culture the aNPCs in the lower chamber were fixed and analyzed for the appearance of newly formed neurons. […]

## IFN-γ
  concentration (as low as) inducing an increase in β-III tubulin expression: 1 ng/mL
